Measured values published in ChEMBL document CHEMBL3856253, “6'-O-Caffeoyldihydrosyringin isolated from Aster glehni suppresses lipopolysaccharide-induced iNOS, COX-2, TNF-α, IL-1β and IL-6 expression via NF-κB and AP-1 inactivation in RAW 264.7 macrophages” (Bioorg Med Chem Lett, 2016).
pIC50: −log10 of the molar value. Calls of active or inactive are those of the source. The rule behind the calls is not given here.

Tests used:
[1] = (§1) Inhibition of NF-kappaB/AP-1 in mouse RAW264.7 cells assessed as reduction in LPS-induced nitric oxide production incubated for 1 hr followed by stimulation with LPS for 24 hrs by Griess assay; assay type: cell-based
[2] = Cytotoxicity against LPS-induced mouse RAW264.7 cells assessed as decrease in cell viability after 24 hrs by MTT assay; assay type: toxicity; conditions: LPS-induced RAW264.7 cells
[3] = (§2) Inhibition of NF-kappaB/AP-1 in mouse RAW264.7 cells assessed as reduction in LPS-induced PGE2 production incubated for 1 hr followed by stimulation with LPS for 24 hrs by enzyme immuno assay; assay type: cell-based
RAW264.7 [4] = experiment: Inhibition of NF-kappaB/AP-1 in mouse RAW264.7 cells assessed as reduction in LPS-induced IL-6 production incubated for 1 hr followed by stimulation with LPS for 24 hrs by enzyme immuno assay; assay type: cell-based
RAW264.7 [5] = experiment: Inhibition of NF-kappaB/AP-1 in mouse RAW264.7 cells assessed as reduction in LPS-induced IL-6 mRNA level incubated for 4 hrs by SYBR green dye based qRT-PCR analysis; assay type: cell-based
[6] = target: Transcription factor Jun (Homo sapiens) (UniProt P05412); experiment: Inhibition of LPS-induced AP-1 (unknown origin) activity expressed in mouse RAW264.7 cells incubated for 1 hr followed by stimulation with LPS for 18 hrs by luciferase reporter gene assay; assay type: cell-based
Transcription factor Jun (Homo sapiens), sequence (P05412 whole entry): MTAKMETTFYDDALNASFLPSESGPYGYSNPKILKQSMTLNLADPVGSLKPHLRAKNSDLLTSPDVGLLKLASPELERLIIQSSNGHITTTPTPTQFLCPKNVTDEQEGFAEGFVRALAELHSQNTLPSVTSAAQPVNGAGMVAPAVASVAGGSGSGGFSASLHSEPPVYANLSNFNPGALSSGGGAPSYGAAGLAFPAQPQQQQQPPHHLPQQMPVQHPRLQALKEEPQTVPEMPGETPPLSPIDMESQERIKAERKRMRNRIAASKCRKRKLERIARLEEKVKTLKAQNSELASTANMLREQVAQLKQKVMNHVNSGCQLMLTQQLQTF

[7] = target: RAC-alpha serine/threonine-protein kinase (Mus musculus) (UniProt P31750); experiment: Inhibition of LPS-induced AKT phosphorylation in mouse RAW264.7 cells at 50 uM incubated for 1 hr followed by stimulation with LPS by Western blot analysis; assay type: cell-based
RAC-alpha serine/threonine-protein kinase (Mus musculus), sequence (P31750 whole entry): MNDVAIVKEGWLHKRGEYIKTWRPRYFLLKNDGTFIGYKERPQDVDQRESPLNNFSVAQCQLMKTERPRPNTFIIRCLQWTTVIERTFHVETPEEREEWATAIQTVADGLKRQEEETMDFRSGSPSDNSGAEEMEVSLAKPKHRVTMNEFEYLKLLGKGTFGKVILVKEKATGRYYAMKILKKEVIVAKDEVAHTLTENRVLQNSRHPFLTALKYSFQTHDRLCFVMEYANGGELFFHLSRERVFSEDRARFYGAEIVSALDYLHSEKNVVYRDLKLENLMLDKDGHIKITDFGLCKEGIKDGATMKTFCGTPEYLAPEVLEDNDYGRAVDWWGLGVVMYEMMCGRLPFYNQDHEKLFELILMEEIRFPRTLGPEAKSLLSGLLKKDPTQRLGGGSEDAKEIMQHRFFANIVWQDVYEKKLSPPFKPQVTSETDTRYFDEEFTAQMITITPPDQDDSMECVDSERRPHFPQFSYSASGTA

[8] = target: Transcription factor p65 (Mus musculus) (UniProt Q04207); experiment: Inhibition of LPS-induced NF-kappaB p65 subunit phosphorylation in mouse RAW264.7 cells at 50 uM incubated for 1 hr followed by stimulation with LPS for 15 to 45 mins; assay type: cell-based
Transcription factor p65 (Mus musculus), sequence (Q04207 whole entry): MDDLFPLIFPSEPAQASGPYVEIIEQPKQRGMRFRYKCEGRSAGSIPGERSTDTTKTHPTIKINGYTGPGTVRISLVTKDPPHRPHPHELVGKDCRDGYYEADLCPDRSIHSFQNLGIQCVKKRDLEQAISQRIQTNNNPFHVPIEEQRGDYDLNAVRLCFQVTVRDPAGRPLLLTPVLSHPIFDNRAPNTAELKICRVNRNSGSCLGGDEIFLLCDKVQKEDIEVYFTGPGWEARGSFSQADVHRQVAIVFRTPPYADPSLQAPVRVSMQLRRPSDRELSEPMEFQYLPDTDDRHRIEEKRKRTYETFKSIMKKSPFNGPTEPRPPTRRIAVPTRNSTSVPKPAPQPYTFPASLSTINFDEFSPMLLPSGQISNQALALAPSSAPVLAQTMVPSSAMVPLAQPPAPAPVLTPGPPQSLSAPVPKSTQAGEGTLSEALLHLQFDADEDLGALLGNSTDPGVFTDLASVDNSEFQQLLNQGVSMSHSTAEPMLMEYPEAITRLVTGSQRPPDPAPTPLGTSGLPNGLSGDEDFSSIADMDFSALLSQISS

RAW264.7 [9] = experiment: Inhibition of NF-kappaB/AP-1 in mouse RAW264.7 cells assessed as reduction in LPS-induced iNOS mRNA level incubated for 4 hrs by SYBR green dye based qRT-PCR analysis; assay type: cell-based
RAW264.7 [10] = experiment: as §1; assay type: cell-based
RAW264.7 [11] = experiment: Inhibition of NF-kappaB/AP-1 in mouse RAW264.7 cells assessed as reduction in LPS-induced TNF-alpha mRNA level incubated for 4 hrs by SYBR green dye based qRT-PCR analysis; assay type: cell-based
[12] = target: Proto-oncogene c-Fos (Mus musculus) (UniProt P01101); experiment: Inhibition of LPS-induced AP-1 c-Fos component phosphorylation in nucleus of mouse RAW264.7 cells at 50 uM incubated for 1 hr followed by stimulation with LPS for 15 to 45 mins by Western blot analysis
Proto-oncogene c-Fos (Mus musculus), sequence (P01101 whole entry, looked up): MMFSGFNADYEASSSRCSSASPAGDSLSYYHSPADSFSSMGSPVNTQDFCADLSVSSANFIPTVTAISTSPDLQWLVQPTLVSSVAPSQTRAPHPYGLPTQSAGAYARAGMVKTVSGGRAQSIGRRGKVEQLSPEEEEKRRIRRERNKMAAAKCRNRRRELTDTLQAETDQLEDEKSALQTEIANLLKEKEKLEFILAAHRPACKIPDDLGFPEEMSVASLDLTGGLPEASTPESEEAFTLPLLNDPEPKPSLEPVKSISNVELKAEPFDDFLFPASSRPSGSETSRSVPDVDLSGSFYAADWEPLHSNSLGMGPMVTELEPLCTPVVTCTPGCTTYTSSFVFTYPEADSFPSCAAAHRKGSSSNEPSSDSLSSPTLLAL

RAW264.7 [13] = experiment: Inhibition of LPS-induced NF-kappaB (unknown origin) activity expressed in mouse RAW264.7 cells incubated for 1 hr followed by stimulation with LPS for 18 hrs by luciferase reporter gene assay; assay type: cell-based
RAW264.7 [14] = experiment: Inhibition of NF-kappaB/AP-1 in mouse RAW264.7 cells assessed as reduction in LPS-induced COX-2 mRNA level incubated for 4 hrs by SYBR green dye based qRT-PCR analysis; assay type: cell-based
RAW264.7 [15] = experiment: as §2; assay type: cell-based
RAW264.7 [16] = experiment: Inhibition of NF-kappaB/AP-1 in mouse RAW264.7 cells assessed as reduction in LPS-induced IL-1beta production incubated for 1 hr followed by stimulation with LPS for 24 hrs by enzyme immuno assay; assay type: cell-based
RAW264.7 [17] = experiment: Inhibition of NF-kappaB/AP-1 in mouse RAW264.7 cells assessed as reduction in LPS-induced iNOS protein expression incubated for 1 hr followed by stimulation with LPS for 24 hrs by Western blot analysis; assay type: cell-based
Mus musculus = species on record: Mus musculus; experiment: Cytotoxicity against LPS-induced mouse RAW264.7 cells assessed as decrease in cell viability up to 50 uM after 24 hrs by MTT assay; assay type: toxicity, cell-based; conditions: raw264.7, 24 h
RAW264.7 [18] = experiment: Inhibition of NF-kappaB/AP-1 in mouse RAW264.7 cells assessed as reduction in LPS-induced TNF-alpha production incubated for 1 hr followed by stimulation with LPS for 24 hrs by enzyme immuno assay; assay type: cell-based
[19] = target: Transcription factor p65 (Mus musculus) (UniProt Q04207); experiment: Inhibition of LPS-induced NF-kappaB p65 subunit nuclear translocation in mouse RAW264.7 cells at 50 uM incubated for 1 hr followed by stimulation with LPS for 15 to 45 mins; assay type: cell-based
RAW264.7 [20] = experiment: Inhibition of NF-kappaB/AP-1 in mouse RAW264.7 cells assessed as reduction in LPS-induced COX-2 protein expression incubated for 1 hr followed by stimulation with LPS for 24 hrs by Western blot analysis; assay type: cell-based
RAW264.7 [21] = experiment: Inhibition of NF-kappaB/AP-1 in mouse RAW264.7 cells assessed as reduction in LPS-induced IL-1beta mRNA level incubated for 4 hrs by SYBR green dye based qRT-PCR analysis; assay type: cell-based

For `C/C(=C\CO)CO[C@@H]1O[C@H](COC(=O)/C=C/c2ccc(O)c(O)c2)[C@@H](O)[C@H](O)[C@H]1O`, the pIC50 [1] was 4.50, the IC80 at 24 h [2] was > 100 µM and the pIC50 [3] was < 4.30.
For `C[C@H](/C=C/[C@@]1(O)[C@H](C)CC(=O)CC1(C)C)O[C@@H]1O[C@H](COC(=O)/C=C/c2ccc(O)c(O)c2)[C@@H](O)[C@H](O)[C@H]1O`, the pIC50 [1] was < 4.30, the IC80 at 24 h [2] was > 100 µM and the pIC50 [3] was < 4.30.
With `COc1cc(CCCO)cc(OC)c1O[C@@H]1O[C@H](COC(=O)/C=C/c2ccc(O)c(O)c2)[C@@H](O)[C@H](O)[C@H]1O` the inhibition (RAW264.7 [4]) was “Active”, the inhibition (RAW264.7 [5]) was “Active” and the inhibition [6] was “Dose-dependent effect”. The inhibition [7] was “Active”, the inhibition [8] was “Active” and the inhibition (RAW264.7 [9]) was “Dose-dependent effect”. The inhibition (RAW264.7 [10]) was “Dose-dependent effect”, the pIC50 [1] was 4.36 and the inhibition (RAW264.7 [11]) was “Active”. For the same compound, the inhibition [12] was “Active”, the IC80 at 24 h [2] was 67.6 µM and the inhibition (RAW264.7 [13]) was “Dose-dependent effect”. For the same compound, the inhibition (RAW264.7 [14]) was “Dose-dependent effect”, the inhibition (RAW264.7 [15]) was “Dose-dependent effect” and the pIC50 [3] was 4.32. The inhibition (RAW264.7 [16]) was “Active”, the inhibition (RAW264.7 [17]) was “Dose-dependent effect” and the Activity (Mus musculus) was “Non-Toxic”. For the same compound, the inhibition (RAW264.7 [18]) was “Active”, the inhibition [19] was “Active” and the inhibition (RAW264.7 [20]) was “Dose-dependent effect”. For the same compound, the inhibition (RAW264.7 [21]) was “Active”.
For `CC(=O)/C=C/C1=C(C)[C@@H](O)[C@@H](O[C@@H]2O[C@H](COC(=O)/C=C/c3ccc(O)c(O)c3)[C@@H](O)[C@H](O)[C@H]2O)CC1(C)C`, the pIC50 [1] was < 4.30, the IC80 at 24 h [2] was > 100 µM and the pIC50 [3] was < 4.30.
With `CC1=CC(=O)CC(C)(C)[C@@]1(O)/C=C/[C@@H](C)O[C@@H]1O[C@H](COC(=O)/C=C/c2ccc(O)c(O)c2)[C@@H](O)[C@H](O)[C@H]1O` the pIC50 [1] was < 4.30, the IC80 at 24 h [2] was 67.8 µM and the pIC50 [3] was < 4.30.
